Laboratory results taken from patent US8715714B2, “Uses of rare earth elements for hair improvement” (Micellbio Co., Ltd., priority 2006, dated 2014).
Entries after “also recorded” stand apart in the source; their conditions may differ. One block for each compound: values may come before it.

Legend:
Format in all cases: cell-based
[1] = test system: B16F10, a mouse melanoma cell; assay: Melanin production in B16F10 cells; conditions: mouse melanoma cell line; versus control group; FIG. 10
Protocol: (§1) Cells were cultivated according to the same process as in Experimental Example 6, and centrifuged (100×g) for 10 minutes to harvest the cells. In order to measure the production of melanin, 200 μg of the cell extract was added to 1 N NaOH (total 1 ml), allowed to stand at room temperature for 30 minutes, and then, absorbance was measured at 400 nm.
(§2) In order to measure the production of melanin, the cells were cultivated and harvested according to the same process as that of Experimental Example 6, and the production of melanin was measured according to the same process as that of Experimental Example 8.

[2] = test system: Mouse embryo fibroblasts NIH 3T3; assay: MTT cell proliferation assay in NIH 3T3 fibroblasts
Protocol: Mouse embryo fibroblasts NIH 3T3 were cultivated in an incubator at 37° C. ([…], 5% CO2 and 60% humidity) while maintaining a density of 2×10^6 or 4×10^6 cells/ml in Dulbecco's modified Eagle's media (DMEM) supplemented with 10% fetal bovine serum (FBS) and 1% penicillin-streptomycin. Cell proliferation was measured by using MTT [3-(3,5-dimethyl-thiazol-2-yl)-2,5-diphenyltetrazolium bromide] assay. For MTT assay, the cells were plated in a 96-well plate at 2×10^3 cells/ml per well, and treated with a culture medium supplemented with 10% FBS. The cells were stabilized in the incubator for 24 hours, the culture medium supplemented with FBS was replaced by FBS-free DMEM, and the cells were treated with mixed rare earth elements of 10 μg, 1 μg, 100 ng, 10 ng, 1 ng, 100 pg, 10 pg and 1 pg, respectively, and individual rare earth elements of 10 ng. Then, the cells were cultivated for a given time, 50 μl per well of MTT (2 mg/l ml sterilized distilled water) was added thereto, and the mixture was reacted for 4 hours. The reaction mixture was treated with DMSO (dimethyl sulfoxide) and shaken for 30 minutes. Absorbance was measured at 540 nm using an ELISA reader (550, Bio-rad).

[3] = test system: Sk-mel-31, a human melanoma cell; assay: Melanin production in Sk-mel-31 cells; conditions: human melanoma cell line; versus control group; FIG. 10
Protocol: as §1, §2

tyrosinase [4] = target: T1, tyrosinase (Mus musculus, UniProt P11344); assay: Activity of tyrosinase in B16F10 cells; conditions: 10 μg to 1 pg, versus control group, FIG. 8
T1 sequence (P11344 19-533): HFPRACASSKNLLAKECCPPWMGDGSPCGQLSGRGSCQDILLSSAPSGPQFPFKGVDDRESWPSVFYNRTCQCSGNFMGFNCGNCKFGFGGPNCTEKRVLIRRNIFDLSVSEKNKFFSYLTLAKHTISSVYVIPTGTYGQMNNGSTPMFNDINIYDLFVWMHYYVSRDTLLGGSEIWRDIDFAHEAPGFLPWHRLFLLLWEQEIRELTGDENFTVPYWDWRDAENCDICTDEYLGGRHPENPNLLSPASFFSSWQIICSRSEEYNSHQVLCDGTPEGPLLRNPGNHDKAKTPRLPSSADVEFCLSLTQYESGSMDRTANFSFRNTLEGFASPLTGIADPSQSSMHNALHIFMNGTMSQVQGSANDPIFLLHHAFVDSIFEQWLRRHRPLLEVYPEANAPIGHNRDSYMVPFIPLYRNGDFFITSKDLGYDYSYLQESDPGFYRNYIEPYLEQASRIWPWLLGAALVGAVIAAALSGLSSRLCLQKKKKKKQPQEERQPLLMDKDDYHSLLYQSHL
Protocol: (§3) In order to evaluate the effect of promoting black hair formation, the activity of tyrosinase was measured in Sk-mel-31, a human melanoma cell, and B16F10, a mouse melanoma cell. The cells were cultivated in an incubator at 37° C. (5% CO2 and 60% relative humidity) while maintaining a density of 1×10^6 cells/ml for Sk-mel-31 and 2×10^5 cells/ml for B16F10 in RPMI-1640 medium (containing 1% penicillin-streptomycin and 10% fetal bovine serum). The cells were stabilized in the incubator for 24 hours, and the culture medium containing FBS was replaced by FBS-free RPMI-1640. The cells were treated with mixed rare earth elements of 10 μg, 1 μg, 100 ng, 10 ng, 1 ng, 100 pg, […] and 1 pg, respectively, and individual rare earth elements of 10 ng. In order to measure the activity of tyrosinase, the cells were cultivated for a given time, centrifuged (100×g) for 10 minutes, and harvested. […] The cells were placed in an ice bath for one hour, and centrifuged with 40,000×g at 4° C. for 20 minutes to obtain a cell extract. 130 μl of 5 mM L-DOPA (L-3,4-dihydroxyphenylalanine) and 120 μl of 25 mM MBTH (3-methyl-2-benzothiazolinone hydrazone) were added to 250 μl of an analysis buffer containing 100 mM potassium phosphate (pH 7.1), 4% N,N-dimethylformamide and 0.1% (v/v) Triton X-100, and reacted in a thermostat at 37° C. for 5 minutes, and then, 100 μg of the cell extract was added thereto, and further reacted for 2 hours. Then, 500 μl of 1 M perchloric acid was added thereto and the mixture was centrifuged with 9,000×g at room temperature for 20 minutes. Then, the supernatant was taken and absorbance was measured at 505 nm.

tyrosinase [5] = assay: Expression of tyrosinase in B16F10 cells by Western blotting; conditions: mouse melanoma cell line; versus control group; FIG. 9
Protocol: (§4) Cells were cultivated according to the same process as in Experimental Example 6, and centrifuged (100×g) for 10 minutes to harvest the cells. In order to measure the expression of tyrosinase by Western blotting, 100 μg of the cell extract was resolved on 10% SDS-PAGE, transferred to NC, and then, blocked with TBS containing 5% skim milk. Then, it was reacted with a primary antibody diluted to 1:2,500 (monoclonal anti-tyrosine hydroxylase clone Th-2) and a secondary antibody diluted to 1:5,000 (anti-mouse IgG), respectively, and washed with TBS containing 0.2% Tween-20, and then, photosensitized on an X-ray film using an ECL detection kit. Then, OD values were graphed using an image analysis program of LabWork™ (version 4.4.00.0).

tyrosinase [6] = assay: Expression of tyrosinase in Sk-mel-31 cells by Western blotting; conditions: human melanoma cell line; versus control group; FIG. 9
Protocol: as §4

tyrosinase [7] = target: T2, tyrosinase (Homo sapiens, UniProt P14679); assay: Activity of tyrosinase in Sk-mel-31 cells; conditions: 10 μg to 1 pg, versus control group, FIG. 7
T2 sequence (P14679 19-529): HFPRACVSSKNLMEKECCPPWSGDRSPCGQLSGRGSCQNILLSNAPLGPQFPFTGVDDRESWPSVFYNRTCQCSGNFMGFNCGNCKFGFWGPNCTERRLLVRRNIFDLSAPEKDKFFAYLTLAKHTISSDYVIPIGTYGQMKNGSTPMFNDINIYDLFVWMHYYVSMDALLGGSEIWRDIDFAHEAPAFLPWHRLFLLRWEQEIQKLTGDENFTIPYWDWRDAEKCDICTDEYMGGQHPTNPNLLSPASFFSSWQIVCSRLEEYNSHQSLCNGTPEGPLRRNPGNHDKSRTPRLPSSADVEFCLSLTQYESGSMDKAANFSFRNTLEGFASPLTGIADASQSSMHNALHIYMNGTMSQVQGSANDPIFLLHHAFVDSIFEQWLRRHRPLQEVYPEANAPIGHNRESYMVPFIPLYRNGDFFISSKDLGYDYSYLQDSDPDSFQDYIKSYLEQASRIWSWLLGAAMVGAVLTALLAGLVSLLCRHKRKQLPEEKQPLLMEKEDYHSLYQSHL
Protocol: as §3

Compound: [Eu] [Eu, europium]
melanin production [1]: substantially the same effect
cell proliferation compared with the non-treated group ([2]; 10 μg to 1 pg, FIG. 1): increased
melanin production [3]: substantially the same effect
tyrosinase activity (tyrosinase [4]): increased; also recorded: substantially the same effect as mixed rare earth elements
expression of tyrosinase (tyrosinase [5]): substantially the same effect
expression of tyrosinase (tyrosinase [6]): substantially the same effect
tyrosinase activity (tyrosinase [7]): increased; also recorded: substantially the same effect as mixed rare earth elements

Compound: [Lu] [Lu, lutetium]
melanin production [1]: relatively lower effect
cell proliferation compared with the non-treated group ([2]; each element of 10 ng, FIG. 2): relatively inferior effect
melanin production [3]: relatively lower effect
tyrosinase activity (tyrosinase [4]): relatively lower effect
expression of tyrosinase (tyrosinase [5]): relatively lower effect
expression of tyrosinase (tyrosinase [6]): relatively lower effect
tyrosinase activity (tyrosinase [7]): relatively lower effect

Compound: [La] [La, lanthanum]
melanin production [1]: relatively lower effect
cell proliferation compared with the non-treated group ([2]; 10 μg to 1 pg, FIG. 1): increased
cell proliferation compared with the non-treated group ([2]; each element of 10 ng, FIG. 2): relatively inferior effect
melanin production [3]: relatively lower effect
tyrosinase activity (tyrosinase [4]): increased; also recorded: relatively lower effect
expression of tyrosinase (tyrosinase [5]): relatively lower effect
expression of tyrosinase (tyrosinase [6]): relatively lower effect
tyrosinase activity (tyrosinase [7]): increased; also recorded: relatively lower effect

tyrosinase activity (tyrosinase [4]): relatively lower effect
tyrosinase activity (tyrosinase [7]): relatively lower effect
Compound: [Sm] [Sm, samarium]
melanin production [1]: relatively lower effect
cell proliferation compared with the non-treated group ([2]; each element of 10 ng, FIG. 2): relatively inferior effect
melanin production [3]: relatively lower effect
expression of tyrosinase (tyrosinase [5]): relatively lower effect
expression of tyrosinase (tyrosinase [6]): relatively lower effect

Compound: [Gd] [Gd, gadolinium]
melanin production [1]: relatively lower effect
cell proliferation compared with the non-treated group ([2]; 10 μg to 1 pg, FIG. 1): increased
cell proliferation compared with the non-treated group ([2]; each element of 10 ng, FIG. 2): relatively inferior effect
melanin production [3]: relatively lower effect
tyrosinase activity (tyrosinase [4]): increased; also recorded: relatively lower effect
expression of tyrosinase (tyrosinase [5]): relatively lower effect
expression of tyrosinase (tyrosinase [6]): relatively lower effect
tyrosinase activity (tyrosinase [7]): increased; also recorded: relatively lower effect

tyrosinase activity (tyrosinase [4]): relatively lower effect
tyrosinase activity (tyrosinase [7]): relatively lower effect
Compound: [Nd] [Nd, neodymium]
melanin production [1]: relatively lower effect
cell proliferation compared with the non-treated group ([2]; each element of 10 ng, FIG. 2): relatively inferior effect
melanin production [3]: relatively lower effect
expression of tyrosinase (tyrosinase [5]): relatively lower effect
expression of tyrosinase (tyrosinase [6]): relatively lower effect
